Assay results from US9642829B2, “Antifungal compound and uses thereof” (The University of Hong Kong, priority 2012, dated 2017).

Legend:
Aspergillus fumigatus = assay: Antifungal susceptibility (MIC/MFC), CLSI criteria; assay type: cell-based; settings: 0.5 McFarland inoculum (10^6 cells/ml)
Description: (§1) Antifungal activity of the small molecules was evaluated using USA standards, Clinical and Laboratory Standards Institute (CLSI) criteria. In brief, inocula from 24 h Candida cultures on Sabourauds's dextore agar were standardized to a turbidity equivalent of 0.5 McFarland standards at 520 nm with a spectrophotometer. The suspensions were further diluted in Rosewell Park Memorial Institute (RPMI) 1640 medium (Life technologies, New York, USA) to yield an inoculum concentration of approximately 0.5 1×10^3 to 2.5 1×10^3 cells/ml. Minimum inhibitory concentration (MIC) and minimum fungicidal concentration (MFC) assay was performed in 96-well plates (Iwaki, Tokyo, Japan) and each of the Candida species was exposed to a double dilution of SM21. Amphotericin B was used as a positive control. All the experiments were preformed three occasions with duplicates for all isolates. The plates were incubated at 35° C. for 48 h to evaluate MIC. In the case of Cryotococcus neoformans, reading were taken after 72 h. Aforementioned assay was performed for C. albicans ATCC 90028, C. albicans SC5314 and 10 C. albicans clinical isolates. Moreover, MIC/MFC determination was carried out for other fungal species such as C. glabrata, C. krusei, C. tropicalis, C. parapsilosis, C. neoformans, Aspergillus fumigates and Penicillium marneffei. […] Next using dose-dependent assay we tested that MIC/MFC of SM21 from 10^3 cells/ml to 10^7 cells/ml of C. albicans (Table 2). Each of the foregoing experiment was repeated on three different occasions.

Penicillium marneffei = assay: Antifungal susceptibility (MIC/MFC), CLSI criteria; assay type: cell-based; settings: 0.5 McFarland inoculum (10^6 cells/ml)
Description: as §1

C. albicans [1] = assay: Systemic candidiasis mouse model; assay type: in vivo; settings: i.v. C. albicans 1×10^6 cells/mL, 100 μl; 2 μg SM21 from 3 h post-infection, twice a day for five days
Description: As a pilot study, we used systemic candidiasis mouse models we have established in our laboratory to evaluate the effect of SM21 against systemic Candida infection. In brief, C. albicans inoculum of 1×10^6 cells/mL was prepared in phosphate buffered saline (PBS) eight mice were infected with 100 μl of the standard inoculum size intravenously via the tail vein. Three hours after post-infection four mice (test group) were given 2 μg of SM21 and other four (control group) were given PBS. SM21 treatment was continued twice a day for five days. By five days all mice in the control group died (FIG. 8). Mice in each test group were sacrificed according to the standard guidelines and their kidney, liver, pancreas, and spleen will be harvested. The fungal burden in the tissues will be assessed according to a standard protocol. In brief, part of the excised tissues were weighed individually and homogenized in sterile saline. Aliquots of 100 μL from tissue homogenates and their dilutions were plated on Sabouraud's dextrose agar and colonies were counted after 48 h of incubation at 37° C.

C. krusei biofilms = assay: Mono species Candida biofilm MIC, XTT assay; assay type: cell-based; settings: 48 h C. krusei biofilms
Description: (§2) For instance, we have previously shown the resistance of Candida biofilms against amphotericin and caspofungin. Therefore, next using standard biofilm assays we have established in our laboratory, we examined the effect of SM21 against Candida biofilms. In brief, Candida cells were grown in SDA medium at 37° C. for 18 h. Then a loopful of the yeast was inoculated into the yeast nitrogen base (YNB; Difco) medium supplemented with 50 mM glucose in a rotary shaker at 75 rpm. After overnight broth culture, the yeasts were harvested in the late exponential growth phase and washed twice with 20 ml of phosphate buffer saline (PBS; pH 7.2. 0.1 M) prior to use in the biofilm studies. Candida biofilms were developed according to a previously published protocol. In brief, washed yeast cells were resuspended in YNB supplemented with 100 mM glucose and adjusted to an optical density of 0.38 at 520 nm (1×10^7 cells/ml). The standard cell suspension was used immediately to develop biofilms on commercially available presterilized, polystyrene, 96-well plate (IWAKI, Tokyo, Japan). At first, 100 μl of standardized cell suspension (1×10^7 cells/ml) was pipetted into each well of a microtiter plate and incubated for 1.5 h at 37° C. in a shaker at 75 rpm to permit yeast adherence to the well surface (adherence phase). For controls, a well of each microtiter plate was handled in an identical fashion except that no Candida suspension was added. Following the adhesion phase, the cell suspensions were aspirated, and each well washed with 100 μl of PBS to remove loosely adherent cells. 200 μl of YNB with 100 mM glucose were then pipetted into each of the washed wells and the plates incubated at 37° C. in a shaker at 75 rpm for 24 or 48 h. After biofilm growth phase microscopic examination of the cultures were performed to rule out contamination. Then, the suspending medium was aspirated and biofilms were washed with 100 μl PBS to remove the nonadherent cells. The stock solutions were diluted twofold with RPMI 1640 supplemented with 2% glucose to obtain SM21 concentration from 100 to 0.2 μg/ml drug concentrations. In parallel, other antifungal agents such as caspofungin (100 to 0.1 μg/ml) and amphotericin B (240 μg/ml to 0.225 μg/ml) was also prepared as describe above. A total of 100 μl of drug solution was added to the microtiter plate containing Candida biofilms. Biofilms were then incubated at 37° C. for 24 h with the antifungals and afterwards metabolic activity of fungal cells was determined by the XTT [2,3-bis(2-methoxy-4-nitro-5-sulfophenyl)-2H-tetrazolium-5-carboxanilide sodium salt] assay (17, 28). Candida biofilm MIC90 was defined as the lowest drug concentration with 90% reduction in opacity compared with the drug free control. Each experiment was repeated three times with four replicates.

C. glabrata biofilms = assay: Mono species Candida biofilm MIC, XTT assay; assay type: cell-based; settings: 48 h C. glabrata biofilms
Description: as §2

C. albicans [2] = assay: Yeast-to-hypha (Y-H) transition inhibition under strong hyphal inducing conditions; assay type: cell-based, Candida albicans; parameters: Y-Hi (yeast-to-hypha inhibitory activity): unit: μg/ml
Description: A large collection of small molecule library was screened in search of inhibitors of yeast-to-hypha transition (Y—H) of C. albicans using 384-well plate-high throughout assays (HTS). […] After subsequent studies with robust Y—H inducing conditions, we herein report a novel small molecule SM21 (FIG. 1) with strong Y-Hi activity and antifungal-activity.
Several environmental conditions which are known to induce the hyphal formation of C. albicans such as serum, Lee's medium, Spider medium, temperature and 37° C. were used to test the ability of SM21 to inhibit Y—H transition. […] SM21 could act as a Y-Hi at a lower concentration of 0.025 μg/ml and 0.0.5 μg/ml for 10^4 cells/ml and 10^6 cells/ml of C. albicans, respectively. Chemical structure of SM21 is shown in (F)

Structure (SMILES): CN(C)c1ccc(/C=C/c2cc(C(C)(C)C)[o+]c(C(C)(C)C)c2)cc1.[O-][Cl+3]([O-])([O-])[O-] [SM21]
- Susceptibility (MIC90) (Aspergillus fumigatus): 6.25 µg/mL
- Susceptibility (MIC90) (Penicillium marneffei): 0.2 µg/mL
- Survival of infected mice (C. albicans [1]): saved all the mice
- Minimum inhibitory concentration of 48 h Candida biofilms (C. krusei biofilms): 25 µg/mL
- Minimum inhibitory concentration of 48 h Candida biofilms (C. glabrata biofilms): 25 µg/mL
- Concentration acting as Y-Hi (C. albicans [2]; 10^4 cells/ml of C. albicans): 0.025 µg/mL
- Y-Hi (yeast-to-hypha inhibitory activity) (C. albicans [2]; C. albicans 10^4 cells/ml): 0.025
- Y-Hi (yeast-to-hypha inhibitory activity) (C. albicans [2]; C. albicans 10^5 cells/ml): 0.5
- Y-Hi (yeast-to-hypha inhibitory activity) (C. albicans [2]; C. albicans 10^6 cells/ml): 0.1
- Y-Hi (yeast-to-hypha inhibitory activity) (C. albicans [2]; C. albicans 10^7 cells/ml): 0.2
- Morphology of C. albicans under hyphal inducing conditions (C. albicans [2]; incubated with SM21 at Y-Hi concentration, serum, Lee's medium, Spider medium, 37° C.): yeast morphology
